Among the test systems are M14 melanoma; OVCAR-8 ovarian; A498 renal; SNB-75 CNS; SK-MEL-5 melanoma; NCI/ADR-RES ovarian; SK-MEL-28 melanoma; SR leukemia.
What all share (assay): NCI-60 cell line screen, 48 h

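In this assay, cells in 96-well plates receive the compound at five concentrations for 48 hours. Endpoints are linearly interpolated between the surrounding concentrations. Here, GI50 denotes the concentration required for 50% inhibition of growth. TGI: concentration producing complete growth inhibition.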

Take `Cc1ccccc1N=C(c1ccccc1)C1C(=O)c2ccccc2C1=O`: the GI50 in the experiment with M14 melanoma is 2.67 µM; in the experiment with OVCAR-8 ovarian, 15 µM; in the experiment with A498 renal, 24.4 µM; in the experiment with SNB-75 CNS, 23.4 µM; in the experiment with SK-MEL-5 melanoma it was 2.41 µM; in the experiment on NCI/ADR-RES ovarian, 8.73 µM. Moreover, in the experiment on SK-MEL-28 melanoma, the GI50 was 24.9 µM. For the same compound, the TGI is 13.2 µM in the experiment with M14 melanoma; over 100 µM in the experiment with OVCAR-8 ovarian; over 100 µM in the experiment on A498 renal; over 100 µM with SNB-75 CNS; 13.3 µM with SK-MEL-5 melanoma; 47.3 µM with NCI/ADR-RES ovarian. Besides, the TGI in the experiment on SK-MEL-28 melanoma was over 100 µM.

For the compound `O=[N+]([O-])c1ccc(NC(c2ccccc2)c2ccc3cccnc3c2O)cc1` (centres undefined), the GI50 in the experiment with M14 melanoma was 0.308 µM; with OVCAR-8 ovarian, 0.435 µM; with A498 renal, 0.634 µM; with SNB-75 CNS, 1.63 µM; with SK-MEL-5 melanoma, 0.4 µM; in the experiment with NCI/ADR-RES ovarian, 0.288 µM. Moreover, in the experiment with SK-MEL-28 melanoma, the GI50 was 0.697 µM. Moreover, the TGI with M14 melanoma is over 100 µM; in the experiment on OVCAR-8 ovarian it was over 100 µM; in the experiment with A498 renal it was 8.13 µM; with SNB-75 CNS, over 100 µM; in the experiment on SK-MEL-5 melanoma, 3.12 µM; in the experiment on NCI/ADR-RES ovarian it was over 23.4 µM. Besides, the TGI in the experiment with SK-MEL-28 melanoma was over 100 µM.

As to `Cc1cc(C2CC(O)C(CO)O2)c(Br)cc1Br` (centres undefined), the GI50 is over 100 µM in the experiment on M14 melanoma; over 100 µM in the experiment on OVCAR-8 ovarian; 36.7 µM with A498 renal; over 100 µM with SK-MEL-5 melanoma; over 100 µM in the experiment on NCI/ADR-RES ovarian; over 100 µM in the experiment with SK-MEL-28 melanoma. Also, the TGI in the experiment on M14 melanoma, in the experiment on OVCAR-8 ovarian, in the experiment with A498 renal, with SK-MEL-5 melanoma, in the experiment on NCI/ADR-RES ovarian and with SK-MEL-28 melanoma was over 100 µM throughout.

`c1ccc2cc(Cn3c(-c4cccc5ccccc45)[n+](Cc4ccc5ccccc5c4)c4c5ccccc5c5ccccc5c43)ccc2c1`: the GI50 in the experiment with OVCAR-8 ovarian was 0.332 µM; in the experiment with A498 renal, 0.193 µM; in the experiment on SNB-75 CNS, 0.261 µM; in the experiment with SK-MEL-5 melanoma, 0.179 µM; in the experiment on NCI/ADR-RES ovarian, 1.77 µM. In addition, the TGI in the experiment on OVCAR-8 ovarian was found to be 1.92 µM; with A498 renal, 0.779 µM; with SNB-75 CNS, 1.19 µM; with SK-MEL-5 melanoma, 0.338 µM; in the experiment on NCI/ADR-RES ovarian, 4.71 µM.

Turning to `COc1cccc(/C=C/C(=O)c2cc3c(N)c(C(=O)Nc4ccccc4)sc3nc2C)c1`, the GI50 in the experiment with M14 melanoma was 1.27 µM; with OVCAR-8 ovarian, 1.63 µM; in the experiment on A498 renal it was 1.18 µM; in the experiment with SR leukemia, 1.28 µM; in the experiment with SNB-75 CNS, 0.889 µM; with SK-MEL-5 melanoma, 1.48 µM. Further, the GI50 in the experiment on SK-MEL-28 melanoma is 1.72 µM. For the same compound, the TGI is 3.52 µM in the experiment on M14 melanoma; over 50 µM in the experiment on OVCAR-8 ovarian; 4.41 µM with A498 renal; 6.46 µM in the experiment with SR leukemia; over 50 µM in the experiment on SNB-75 CNS; 5.53 µM in the experiment on SK-MEL-5 melanoma. Moreover, the TGI in the experiment on SK-MEL-28 melanoma came to 6.45 µM.

On to `C=C1[C@H](O)C[C@@H](C(C)C(O)CC=C(C)C)[C@@H](O)[C@@H]2C(C)=CC[C@@H]12` (some centres undefined), for which the GI50 in the experiment with M14 melanoma, with OVCAR-8 ovarian, with SR leukemia, with SNB-75 CNS, with SK-MEL-5 melanoma and in the experiment with NCI/ADR-RES ovarian was over 100 µM in each case. Besides, the GI50 with SK-MEL-28 melanoma is over 100 µM. The TGI in the experiment on M14 melanoma, in the experiment with OVCAR-8 ovarian, with SR leukemia, with SNB-75 CNS, in the experiment with SK-MEL-5 melanoma and in the experiment on NCI/ADR-RES ovarian was over 100 µM each time. In the experiment with SK-MEL-28 melanoma, this compound displayed a TGI of over 100 µM.

In the case of `Oc1ccc(Cl)cc1N=Nc1c(O)ccc2ccccc12`, the TGI in the experiment on M14 melanoma, in the experiment on OVCAR-8 ovarian, in the experiment with SR leukemia, in the experiment with SNB-75 CNS, in the experiment with SK-MEL-5 melanoma and in the experiment with NCI/ADR-RES ovarian was over 100 µM each time. In addition, in the experiment on SK-MEL-28 melanoma, the TGI is over 100 µM.

For the compound `Cc1ccc2c(c1)n([O-])c(C(F)(F)F)c(C(=O)c1ccco1)[n+]2=O`, the GI50 in the experiment on M14 melanoma was 1.3 µM; in the experiment on OVCAR-8 ovarian it was 0.684 µM; with A498 renal, 1.21 µM; in the experiment on SNB-75 CNS, 1.4 µM; in the experiment with SK-MEL-5 melanoma it was 0.556 µM; in the experiment on NCI/ADR-RES ovarian it was 0.74 µM. The GI50 with SK-MEL-28 melanoma is 4.16 µM. In addition, the TGI was found to be 6.55 µM in the experiment on M14 melanoma; 2.64 µM in the experiment on OVCAR-8 ovarian; 3.21 µM in the experiment with A498 renal; 6.07 µM in the experiment on SNB-75 CNS; 1.3 µM in the experiment on SK-MEL-5 melanoma; 3.55 µM with NCI/ADR-RES ovarian. In addition, the TGI in the experiment on SK-MEL-28 melanoma was found to be 23.6 µM.

Take `O=C(O)[C@@H](Cc1ccccc1)NS(=O)(=O)c1ccc(-c2ccccc2)cc1`: the GI50 with M14 melanoma was over 100 µM; in the experiment on OVCAR-8 ovarian, over 100 µM; in the experiment with A498 renal it was 59.6 µM; with SNB-75 CNS it was over 100 µM; in the experiment on SK-MEL-5 melanoma it was over 100 µM; in the experiment with NCI/ADR-RES ovarian it was over 100 µM. In the experiment with SK-MEL-28 melanoma, the GI50 is over 100 µM. Moreover, the TGI in the experiment with M14 melanoma, in the experiment on OVCAR-8 ovarian, with A498 renal, in the experiment with SNB-75 CNS, with SK-MEL-5 melanoma and in the experiment with NCI/ADR-RES ovarian was over 100 µM throughout. In the experiment with SK-MEL-28 melanoma, this compound displayed a TGI of over 100 µM.

Consider `[N-]=[N+]=NCCCn1c2c(c3ccccc3c1=O)C(=O)c1cc3c(cc1-2)OCO3`, for which the GI50 in the experiment on M14 melanoma was 79.7 µM; with OVCAR-8 ovarian it was over 100 µM; in the experiment with A498 renal it was 75 µM; in the experiment on SR leukemia it was 0.157 µM; in the experiment on SK-MEL-5 melanoma, 45.6 µM; with NCI/ADR-RES ovarian it was 90.9 µM. For the same compound, the TGI with M14 melanoma, in the experiment with OVCAR-8 ovarian, in the experiment with A498 renal, in the experiment with SR leukemia, with SK-MEL-5 melanoma and with NCI/ADR-RES ovarian was over 100 µM throughout.

As to `CCCCCCCN(CCCCCCC)C(=N)c1ccc(OC)c2ccccc12`, the GI50 in the experiment with M14 melanoma was 1.53 µM; with OVCAR-8 ovarian, 1.41 µM; in the experiment with A498 renal, 0.419 µM; in the experiment with SNB-75 CNS, 1.3 µM; in the experiment with SK-MEL-5 melanoma, 1.58 µM; in the experiment with NCI/ADR-RES ovarian, 1.46 µM. For the same compound, the GI50 in the experiment with SK-MEL-28 melanoma was 1.62 µM. Further, the TGI stood at 2.95 µM with M14 melanoma; 3.04 µM with OVCAR-8 ovarian; 1.8 µM in the experiment with A498 renal; 2.6 µM in the experiment on SNB-75 CNS; 3.01 µM with SK-MEL-5 melanoma; 3.05 µM in the experiment on NCI/ADR-RES ovarian. Moreover, the TGI in the experiment on SK-MEL-28 melanoma was 3.17 µM.

For the origin of these results see PubChem BioAssay (NCI).
